Results published in patent US11084795B2, “CFTR regulators and methods of use thereof” (The Regents of the University of California, priority 2015, dated 2021).
“Also recorded” adds a separate entry of the source.

Tests used:
cellular cAMP = assay: GloSensor cAMP assay in FRT cells; type: cell-based, rat; conditions: 1c at 10 μM
Description: Intracellular cAMP activity was measured using a GloSensor luminescence assay (Promega Corp., Madison, Wisconson, USA). FRT null cells were stably transfected with the pGloSensor cAMP plasmid and plated onto white 96-well microplates and grown to confluence. Cells were washed three times with PBS and incubated with 5 μM CFTRact-J027 for 10 min in the absence and presence of 100 nM forskolin. cAMP was assayed according to the manufacturer's instructions.
Intracellular cAMP activity was measured using a GloSensor luminescence assay (Promega Corp., Madison, Wis., USA). FRT cells stably transfected with the pGloSensor cAMP plasmid (Promega Corp.) were cultured in white 96-well microplates (Corning Costar) overnight. Cells were then washed three times with PBS and incubated with 5 μM test compound for 10 min in the absence and presence of 100 nM forskolin.
cAMP assay. Intracellular cAMP activity was measured using a GloSensor luminescence assay (Promega Corp., Madison, Wisconson, USA). FRT null cells were stably transfected with the pGloSensor cAMP plasmid and plated onto white 96-well microplates and grown to confluence. […]
cAMP and cytotoxicity assays. Intracellular cAMP activity was measured using a GloSensor luminescence assay (Promega Corp., Madison, Wis., USA). […]

[1] = In vitro metabolic stability in mouse liver microsomes; type: in vitro ADME; conditions: mouse hepatic microsomes, NADPH
Description: (§1) CFTRact-J027 (5 μM) was incubated for specified times at 37° C. with mouse liver microsomes (1 mg protein/ml; Sigma-Aldrich) in potassium phosphate buffer (100 mM) containing 1 mM NADPH, as described. The mixture was then chilled on ice, and 0.5 ml of ice-cold ethyl acetate was added. Samples were centrifuged for 15 min at 3000 rpm, the supernatant evaporated to dryness, and the residue was dissolved in 100 μL mobile phase (acetonitrile:water, 3:1) for LC/MS and assayed as described above.
as §1, with “In vitro metabolic stability. CFTRact-J027” for “CFTRact-J027”
In vitro metabolic stability. Test compound (at 5 μM) was incubated for specified times at 37° C. with mouse liver microsomes (1 mg protein/ml; Sigma-Aldrich, St. Louis, Mo.) in potassium phosphate buffer containing 1 mM NADPH, as described. Following ethyl acetate extraction, non-metabolized parent compound was assayed by LC/MS.

cytoplasmic calcium = assay: Cytoplasmic calcium (Fluo-4) in FRT cells; type: cell-based, rat; conditions: 1c at 10 μM; ATP as calcium agonist
Description: FIGS. 23A-23D. In vitro characterization of compound 1c. FIG. 23A. Cellular cAMP in FRT cells in response to incubation for 10 min with […] 1c without or with 90 nM forskolin (fsk). Positive controls included fsk (100 nM and 20 pM) and fsk+IBMX (20 pM+100 pM) (mean±S.E.M., n=4). FIG. 23B. Cytoplasmic calcium measured by Fluo-4 fluorescence. FRT cells were pretreated for 5 min with 10 pM 1c (or control), with 100 pM ATP added as a calcium agonist as indicated. FIG. 23C. […] FIG. 23D.

[2] = test system: calcium-activated chloride channels in HT-29 cells; assay: CaCC activity in HT-29 cells expressing YFP; type: cell-based; conditions: 1c at 10 μM
TMEM16A = TMEM16A activity in FRT cells expressing YFP and TMEM16A; type: cell-based; conditions: 1c at 10 μM
loperamide-treated mice = assay: Loperamide-induced mouse model of constipation; conditions: 1c orally 1 h prior to loperamide, 3-h stool
human wildtype CFTR [3] = biological target: T1, human wildtype CFTR (Homo sapiens, UniProt P13569); assay: Short-circuit current (Isc) in FRT cells expressing human wild-type CFTR; conditions: read-out: EC50 for CFTR activation; FRT cells, wild-type CFTR, short-circuit current
human wildtype CFTR [4] = biological target: T1, human wildtype CFTR; assay: Fluorescence plate reader assay of iodide influx in FRT cells co-expressing CFTR and YFP halide sensor

T1 sequence (P13569 whole entry): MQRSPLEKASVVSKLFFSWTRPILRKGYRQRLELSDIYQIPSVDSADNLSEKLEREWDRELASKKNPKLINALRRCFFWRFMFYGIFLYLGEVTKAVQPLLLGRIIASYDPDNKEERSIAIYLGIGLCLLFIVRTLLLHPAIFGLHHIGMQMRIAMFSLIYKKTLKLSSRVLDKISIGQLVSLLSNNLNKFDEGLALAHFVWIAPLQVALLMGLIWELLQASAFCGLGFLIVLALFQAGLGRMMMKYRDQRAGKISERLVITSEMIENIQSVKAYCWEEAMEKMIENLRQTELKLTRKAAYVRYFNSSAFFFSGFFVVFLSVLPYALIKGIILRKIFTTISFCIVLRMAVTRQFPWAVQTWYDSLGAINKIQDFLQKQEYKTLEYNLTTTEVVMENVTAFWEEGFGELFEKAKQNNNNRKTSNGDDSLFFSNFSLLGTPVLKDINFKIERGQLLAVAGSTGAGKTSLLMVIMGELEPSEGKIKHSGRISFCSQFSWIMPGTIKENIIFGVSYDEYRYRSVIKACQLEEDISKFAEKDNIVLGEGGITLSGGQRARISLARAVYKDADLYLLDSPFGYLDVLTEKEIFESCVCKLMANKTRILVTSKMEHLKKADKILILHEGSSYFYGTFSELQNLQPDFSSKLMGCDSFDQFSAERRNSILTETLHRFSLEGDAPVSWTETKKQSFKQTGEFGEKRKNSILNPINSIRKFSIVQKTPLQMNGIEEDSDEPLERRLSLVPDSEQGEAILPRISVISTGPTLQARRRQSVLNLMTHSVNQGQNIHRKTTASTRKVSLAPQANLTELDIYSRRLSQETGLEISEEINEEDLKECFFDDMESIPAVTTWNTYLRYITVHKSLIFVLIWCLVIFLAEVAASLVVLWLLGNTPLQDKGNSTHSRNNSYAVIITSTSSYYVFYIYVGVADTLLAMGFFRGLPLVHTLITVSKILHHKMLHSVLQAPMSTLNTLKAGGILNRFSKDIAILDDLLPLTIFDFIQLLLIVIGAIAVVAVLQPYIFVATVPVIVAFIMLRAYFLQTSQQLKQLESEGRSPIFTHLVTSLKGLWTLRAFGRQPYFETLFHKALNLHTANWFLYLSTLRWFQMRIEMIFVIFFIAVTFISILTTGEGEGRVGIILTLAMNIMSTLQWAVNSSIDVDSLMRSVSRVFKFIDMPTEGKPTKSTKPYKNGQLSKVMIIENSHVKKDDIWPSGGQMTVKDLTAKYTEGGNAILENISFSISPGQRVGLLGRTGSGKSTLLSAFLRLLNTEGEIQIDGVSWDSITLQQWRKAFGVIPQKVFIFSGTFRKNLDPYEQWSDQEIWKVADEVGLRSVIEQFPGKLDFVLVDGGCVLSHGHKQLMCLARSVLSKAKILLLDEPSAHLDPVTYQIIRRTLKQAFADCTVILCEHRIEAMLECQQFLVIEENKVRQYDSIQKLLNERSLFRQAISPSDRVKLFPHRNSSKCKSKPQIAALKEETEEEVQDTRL

compound metabolized at 60 min [1]: < 40% | EC50 (human wildtype CFTR [3]): 21 nM | increased potency compared to 4 (human wildtype CFTR [4]; plate reader assay): ~10 fold | EC50 (human wildtype CFTR [4]; read-out: EC50, variation in the 3-aryl ring, plate reader assay): 9 nM | EC50 (human wildtype CFTR [4]; synthesized compounds, full dose-response study, 125 nM forskolin): 9 nM
Compound: O=c1c(-c2cccc([N+](=O)[O-])c2)nc2ccccc2n1Cc1ccccc1 [Compound 1c, 1-Benzyl-3-(3-nitrophenyl)quinoxalin-2(1H)-one]
effect on cellular cAMP level (cellular cAMP): did not affect the cellular cAMP level | cytoplasmic calcium (cytoplasmic calcium): nor did it elevate cytoplasmic calcium or inhibit the ATP-stimulated elevation in cytoplasmic calcium | activation or inhibition of calcium-activated chloride channels in HT-29 cells [2]: no activation (iodide addition) or inhibition (iodide+ATP addition); also recorded: neither inhibited nor activated | activation or inhibition of TMEM16A (TMEM16A): no activation (iodide addition) or inhibition (iodide+ATP addition); also recorded: neither inhibited nor activated | stool weight, pellet number and hydration (loperamide-treated mice): fully normalized stool weight, pellet number and hydration
